{"source": "a melting point compilation (Tetko et al.; mined from patent text by program, amines drawn as free bases though some values may be those of a salt)"}
{"units": {"melting point": "°C"}}
{"compound": "CCCCCN(CCC12CC3CC(CC(C3)C1)C2)C(=O)NCC(C)(C)Cc1ccncc1", "melting point": "82.5 to 84.9"}
{"compound": "Cc1noc(NS(=O)(=O)c2ccsc2C(N)=O)c1Br", "melting point": "168 to 170"}
{"compound": "O=C(CCCCl)c1ccc2c(c1)Cc1cc(C(=O)CCCCl)ccc1-2", "melting point": "172 to 175"}
{"compound": "CCOC(=O)NNc1cc(C)c(-c2ccc(C#N)cc2)nn1", "melting point": "189 to 191"}
{"compound": "Cc1oc(-c2ccccc2)nc1CCOc1ccc(Cn2cc(CCC(=O)O)c(-c3ccccc3)c2)cc1", "melting point": "147 to 148"}
{"compound": "Cn1nc(-c2ccccc2)c2cccc(NS(C)(=O)=O)c2c1=O", "melting point": "217 to 218"}
{"compound": "CC(=O)Nc1c(C(=O)c2ccccc2)[nH]c2cc(Cl)ccc12", "melting point": "212 to 213"}
{"compound": "NCc1ccc(-c2csc(N=C(N)N)n2)o1", "melting point": "160 to 163"}
{"compound": "CCOP(=O)(CC(=O)O)CC(Cc1ccccc1)NS(=O)(=O)c1ccc(C)cc1", "note": "(stereo not drawn)", "melting point": "110 to 112"}
{"compound": "NC/C=C/COc1ccc(-n2ccnc2)cc1", "melting point": "81 to 83"}
{"compound": "Cc1c(CC(=O)O)oc2ccc(F)cc12", "melting point": "129 to 130"}
{"compound": "CC1=CC(=Nc2nccs2)C(C)C(C)=C1O", "note": "(stereo not drawn)", "melting point": "95 to 96"}
{"compound": "Cc1ccccc1C1CC(=O)c2c(C)ccnc2C1", "note": "(stereo not drawn)", "melting point": "104 to 106"}
{"compound": "CNC(=O)CCC12CC(c3ccccc31)c1ccccc12", "melting point": "200 to 201"}
{"compound": "NC(Cc1ccc2c(c1)CCC2)=NO", "melting point": 60}
{"compound": "COC1=C(OC)C(=O)C(CCCCCCCCCCCO)=C(C)C1=O", "melting point": 57}
{"compound": "CN1CC2C(C1)C2Nc1ncc2cc(-c3ccccc3Cl)c(=O)n(C3CC3)c2n1", "note": "(stereo not drawn)", "melting point": "190 to 191"}
{"compound": "COC(=O)[C@@H]1CSC(=S)N1CC(C)(C)SCc1ccc(OC)cc1", "melting point": "125 to 127"}
{"compound": "CC1=C(C(=O)c2ccc(C(=O)NCCC#N)cc2)C(=O)C2C=CC=CC2C1=O", "note": "(stereo not drawn)", "melting point": "172 to 173"}
{"compound": "O=C(O)COc1ccc(C(=C2CCCCCC2)c2ccc(O)cc2)cc1", "melting point": "170 to 171"}
{"compound": "CN1CCN(c2ccc(Nc3nc(N)c(C(=O)c4c(Cl)cc(Br)c(N)c4Cl)s3)cc2)CC1", "melting point": "180 to 182"}
{"compound": "CCc1c(CC(N)=O)c2cc(OCCCC(N)=O)ccc2n1Cc1ccccc1", "melting point": "176 to 179"}
{"compound": "O=[N+]([O-])c1ccc(Oc2ccc(C(F)(F)F)cc2Cl)cc1SCl", "melting point": "74 to 78"}
{"compound": "Cc1sc2c(c1C)C(c1ccc(Cl)cc1)=NC(CC(=O)NCc1cccnc1)c1nnc(C)n1-2", "note": "(stereo not drawn)", "melting point": "180 to 183"}
{"compound": "COc1cc(-c2cc3ccccc3[nH]2)ccc1OS(C)(=O)=O", "melting point": 194}
{"compound": "CCCCOc1cc(C)c(N=Nc2ccccc2)c(C)c1", "melting point": "47 to 47.5"}
{"compound": "COc1ccc(-c2nc(C(=O)c3ccc(N)c(C(=O)O)c3)n3ccccc23)cc1", "melting point": 296}
{"compound": "CC(C)=NOCc1nc2c(N)nc3cccnc3c2n1CC(C)(C)O", "melting point": "198 to 200"}
{"compound": "Cc1nc(N2CCOCC2)sc1-c1ccnc(Nc2ccc(N3CCOCC3)cc2)n1", "melting point": "229 to 231"}
{"compound": "CN1C(=O)Cc2cc(Cl)ccc21", "melting point": "118 to 119"}
{"compound": "CSCc1cc(=O)c2ccc(OCc3ccccc3)c(C)c2o1", "melting point": "110 to 114"}
{"compound": "COC(=O)Cc1ccc(OCCNC(=O)C2Cc3ccccc3N2S(=O)(=O)c2ccc(-c3cc(C(F)(F)F)ccc3OC)cc2)cc1", "note": "(stereo not drawn)", "melting point": "61 to 64"}
{"compound": "COc1cc(CNC(=O)c2cc3c(=O)n(CC4CCCCC4)c(=O)n(C)c3s2)ccn1", "melting point": "167 to 210"}
{"compound": "Cn1c(=O)c2c(ncn2Cc2noc(CCO)n2)n(C)c1=O", "melting point": 145}
{"compound": "Cc1noc(NS(=O)(=O)c2cc3ccccc3s2)c1C", "melting point": "157 to 160"}
{"compound": "O=C(O)COc1cscc1Cl", "melting point": 123}
{"compound": "COc1ccc(N2C(=O)C(O)C2c2ccccc2Cl)cc1", "note": "(stereo not drawn)", "melting point": "178 to 180"}
{"compound": "O=C(Nc1nc(C(F)(F)F)co1)C1c2ccccc2Oc2ccc(Cl)cc21", "note": "(racemic)", "melting point": 235}
{"compound": "Oc1nccc2ccncc12", "melting point": "260 to 262"}
{"compound": "CC(=O)N1Cc2cccn2N(C)c2ccncc21", "melting point": "125 to 130"}
{"compound": "CSc1nccc(C)c1NC(=O)CCCCCCCCSc1nc2ccccc2s1", "melting point": "88 to 90"}
{"compound": "CC(C)n1nc(-c2sc(C(=O)NCCN3CCOCC3)nc2-c2ccccc2)ccc1=O", "melting point": "196 to 198"}
{"compound": "CN1CCN(C(=O)c2ccc(-c3cc(-c4c[nH]nc4-c4ccccn4)ccn3)cc2)CC1", "melting point": 142}
{"compound": "O=C(Nc1cccc(S(=O)(=O)N2CCCC2CO)c1)c1cnn2c(C3CC3)cc(-c3ccc(Cl)cc3)nc12", "note": "(stereo not drawn)", "melting point": "180 to 182"}
{"compound": "CC1(C)Cc2cccc(OCC3CO3)c2O1", "note": "(stereo not drawn)", "melting point": "51 to 52"}
{"compound": "CC1CCCN1CC=CC(=O)Nc1cc2c(Nc3ccc(F)c(Cl)c3)ncnc2cc1OCC1CC1", "note": "(stereo not drawn)", "melting point": "108 to 110"}
{"compound": "COC(=O)[C@H]1C=C(c2ccccc2)OC(=O)[C@H]1Cc1ccccc1", "melting point": "105 to 106"}
{"compound": "COCCOCCOCCOc1cc([N+](=O)[O-])c([N+](=O)[O-])cc1OCCOCCOCCOC", "melting point": "43 to 45"}
{"compound": "CNNc1nncc(-c2ccccc2)n1", "melting point": "112 to 113"}
{"compound": "O=C(Nc1cccc(OCc2cccnc2)c1)N1CCCC1", "melting point": "138 to 140"}
{"compound": "Cc1ccc(C(=O)Nc2cn(C3CCCCO3)nc2C(=O)NCCO)cn1", "note": "(stereo not drawn)", "melting point": 140}
{"compound": "CC(=O)Nc1ccc(CC(=S)N2CCOCC2)cc1", "melting point": "210 to 212"}
{"compound": "CN(CCF)c1nc2cc(NC(=O)c3c(C(=O)N4CCC4)cnn3C)ccn2n1", "melting point": "236 to 237"}
{"compound": "CC12CCC3c4ccc(C(=O)O)cc4CCC3C1CCC2C(=O)c1ccc(Oc2ccccc2)cc1", "note": "(stereo not drawn)", "melting point": "224 to 225"}
{"compound": "O=c1oc2cccc(O)c2c(OCCN2CCOCC2)c1-c1ccccc1", "melting point": 206}
{"compound": "CCOC(=O)NNc1cc(C)c(-c2ccc(Br)cc2)nn1", "melting point": "178 to 179"}
{"compound": "CC(=O)NCC1CC(c2ccc(N3CCCC3)c(F)c2)=NO1", "note": "(stereo not drawn)", "melting point": "141 to 143"}
{"compound": "O=Cc1cc(OCc2ccccc2)c(OCc2ccccc2)cn1", "melting point": 104}
{"compound": "CN1Cc2c(-c3noc(CCl)n3)ncn2-c2ccsc2C1=O", "melting point": "221 to 223"}
{"compound": "COC(=O)C(O)C(=O)C(C)Oc1ccc(Oc2nc3ccc(Cl)cc3s2)cc1", "note": "(stereo not drawn)", "melting point": "104 to 106"}
{"compound": "Cc1c(F)cccc1Cc1c(-c2ccccc2)c2ccccn2c1C(=O)N1CCN[C@@H](CC(=O)NCC2CCOCC2)C1", "melting point": 147}
{"compound": "CCOC(=O)C1=C(C)N(C(C)=O)C(c2csc(C)n2)=NC1c1ccc(F)cc1", "note": "(stereo not drawn)", "melting point": "140 to 142"}
{"compound": "Cc1ccccc1N1CCN(Cc2n[nH]c3ccccc23)CC1", "melting point": "135 to 136"}
{"compound": "CCCS(=O)(=O)N(C)CCc1ccncc1", "melting point": "109 to 110"}
{"compound": "Cc1cccc(-n2c(-c3sc(Nc4ccc(Cl)cc4)nc3C)nc3ccccc3c2=O)c1", "melting point": "236 to 238"}
{"compound": "CCSCCCCCCCCCCC(=O)O", "melting point": "58 to 61"}
{"compound": "CCOC(=O)COc1ccc(Nc2nccc(-c3ccncc3)n2)cc1", "melting point": "109 to 111"}
{"compound": "O=C1C(N2CCOCC2)=CCCN1c1ccc(I)cc1", "melting point": "138 to 148"}
{"compound": "C=CCc1cc2c(cc1O)CCC(=O)N2CC=Cc1ccccc1", "melting point": "199 to 203"}
{"compound": "NC(=O)Cn1c(-c2ccccn2)nc2cccnc21", "melting point": "275 to 278"}
{"compound": "CCCCCCCCCCCCc1ccc(S(=O)(=O)Nc2nnc(CCCCCN(C)c3ccc([N+](=O)[O-])c4nonc34)s2)cc1", "melting point": "102 to 104"}
{"compound": "CCN(CC)CCN(CCN1CCCCC1)c1ccc(-c2nc3ccc(Cl)cc3[nH]2)cc1", "melting point": 156}
{"compound": "Oc1ccc2ccc(-c3ccccc3)cc2c1", "melting point": 205}
